Several values for one entry are separate records, joined by “and”; a condition that tells them apart may be missing. Equal values may be shown once. Entries after “also recorded” stand apart in the source; their conditions may differ.
Experiments:
[1] = system: BjaRKO receiver cells (pSB1A3–bjaRKO–gfp); assay: BjaR receiver cell AHSL dose-response (gfp reporter, plate reader); assay type: cell-based, E. coli XL10-Gold
From the text: (§1) Next, we set out to establish a unidirectional communication pathway by reconstituting the BjaI and BjaR QS machinery, separately, within synthetic cells and E. coli, respectively. As a starting point, IV-HSL-responsive receiver cells were created by transforming E. coli XL10-Gold cells with a reporter plasmid, pSB1A3–bjaR–gfp[28]. This plasmid contained a bjaR gene under the control of a constitutively active J23100 promoter and a gfp gene under the control of a pBjaR promoter. The pBjaR promoter was formed by substituting the lux-box of the pLux promoter with the BjaR-binding site (Supplementary Fig. 10). […] Although this reporter plasmid had been characterized previously, gfp expression was initiated with C4-HSL rather than the cognate ligand, IV-HSL. Thus, we first evaluated the dose–response relationship between synthetic IV-HSL (synthesis described in Methods) and GFP production by BjaR receiver cells. The cells were grown in M9 minimal media to an optical density at 600 nm (OD600) = 0.05, then transferred to a 96-well plate containing IV-HSL and incubated at 37 °C, 800 r.p.m., for 4 h. […] To elucidate the root cause of the high background fluorescence, a BjaRKO variant of the reporter plasmid was constructed. […] Therefore, the high OFF-state was attributed to BjaR-mediated transcription activation in the absence of IV-HSL, rather than host transcription factors recognizing the pBjaR promoter, or transcription factor independent gfp expression.
(§2) The BjaR reporter plasmids were retransformed into E. coli XL10-Gold cells for each experiment. A single colony was used to inoculate 5 ml LB + Amp media and incubated at 37 °C, 225 r.p.m. overnight. Overnight cultures were diluted 1/250 or 1/500 in 5 ml M9 minimal media + Amp and incubated at 37 °C, 225 r.p.m. for 3 h and 45 min (until OD600 = ~0.075). Cultures were diluted down to OD600 = 0.05 with M9 minimal media + Amp, and 200 µl was added to wells of a 96-well plate containing 1 µl IV-HSL dissolved in DMSO or 1 µl BjaI CFPS reactions (IV-HSL concentrations obtained from serial dilution from 63.2 µM to 632 pM; final DMSO concentration = 0.5%). Cells were incubated at 37 °C, 800 r.p.m., in a thermomixer with a heated lid for 4 h. Fluorescence and OD600 were measured in a Tecan M1000 infinite plate reader (excitation, 488 nm; emission, 510 nm; bandwidth, 5 nm; gain, 101 and z position, 21,311 µm). The dose–response curves were fitted to the function indicated by Eq. (1), where a = maximal fluorescence output, b = basal fluorescence output, X = concentration of AHSL, GFP = fluorescence at the given condition, EC50 = AHSL at 50% maximal fluorescence output and h = hill coefficient. EC50 and h were derived using the nonlinear regression model based on Eq. (1), in MATLAB. A summary of the dose–response data is available in Supplementary Table 1.1 GFP=b+a−b/1+10^logEC50−X×h

[2] = system: BjaRWT (B0034|ATG) receiver cells (pSB1A3–bjaR–gfp); assay: as above; assay type: cell-based, E. coli XL10-Gold
From the text: as §1, §2

CC(C)CC(=O)N[C@H]1CCOC1=O [IV-HSL, N-isovaleryl-L-homoserine lactone]
gfp expression in presence of IV-HSL ([1]; BjaR knocked out): completely ablated gfp expression; also recorded: minimal gfp expression
GFP ([1]; Log([ASHL]) -6.5): 184 and 176 and 173
Mean normalised fluorescence ([1]; Log([ASHL]) -6.5): 361.621
Normalised fluorescence ([1]; Log([ASHL]) -6.5): 365.437 and 317.314 and 402.112
GFP ([1]; Log([ASHL]) -7): 173 and 168 and 165
Mean normalised fluorescence ([1]; Log([ASHL]) -7): 321.731
Normalised fluorescence ([1]; Log([ASHL]) -7): 319.68 and 293.754 and 351.759
GFP ([1]; Log([ASHL]) -7.5): 177 and 169 and 166
Mean normalised fluorescence ([1]; Log([ASHL]) -7.5): 323.42
Normalised fluorescence ([1]; Log([ASHL]) -7.5): 331.126 and 287.856 and 351.279
GFP ([1]; Log([ASHL]) -8): 168 and 166 and 175
Mean normalised fluorescence ([1]; Log([ASHL]) -8): 329.861
Normalised fluorescence ([1]; Log([ASHL]) -8): 292.758 and 367.412 and 329.412
GFP ([1]; Log([ASHL]) -8.5): 168 and 165 and 177
Mean normalised fluorescence ([1]; Log([ASHL]) -8.5): 326.491
Normalised fluorescence ([1]; Log([ASHL]) -8.5): 291.054 and 362.261 and 326.158
GFP ([1]; Log([ASHL]) -9): 165 and 164 and 177
Mean normalised fluorescence ([1]; Log([ASHL]) -9): 335.395
Normalised fluorescence ([1]; Log([ASHL]) -9): 295.725 and 362.027 and 348.432
GFP ([1]; Log([ASHL]) -9.5): 164 and 162 and 172
Mean normalised fluorescence ([1]; Log([ASHL]) -9.5): 325.095
Normalised fluorescence ([1]; Log([ASHL]) -9.5): 293.548 and 346.048 and 335.689
GFP ([1]; Log([ASHL]) -10): 163 and 162 and 171
Mean normalised fluorescence ([1]; Log([ASHL]) -10): 332.521
Normalised fluorescence ([1]; Log([ASHL]) -10): 290.698 and 371.151 and 335.714
GFP ([1]; Log([ASHL]) -10.5): 166 and 164 and 173
Mean normalised fluorescence ([1]; Log([ASHL]) -10.5): 338.795
Normalised fluorescence ([1]; Log([ASHL]) -10.5): 301.85 and 369.458 and 345.075
GFP ([1]; Log([ASHL]) -11): 163 and 161 and 171
Mean normalised fluorescence ([1]; Log([ASHL]) -11): 330.063
Normalised fluorescence ([1]; Log([ASHL]) -11): 296.053 and 361.746 and 332.39
GFP ([1]; Log([ASHL]) -11.5): 165 and 174 and 162
Mean normalised fluorescence ([1]; Log([ASHL]) -11.5): 344.578
Normalised fluorescence ([1]; Log([ASHL]) -11.5): 307.076 and 352.984 and 373.673
IV-HSL concentration at which gfp expression saturated ([2]; 4 h, 37 °C): ~ 100 nM
lowest IV-HSL concentration giving increased gfp expression ([2]; 4 h, 37 °C): 100 pM
EC50 ([2]; Escherichia coli, IV-HSL-activated gfp expression, M9 minimal media, 37 °C, 4 h): 1 ± 0.11 nM
GFP ([2]; Log([ASHL]) -6.5): 5520 and 5263 and 4853
Mean normalised fluorescence ([2]; Log([ASHL]) -6.5): 51540.5
Normalised fluorescence ([2]; Log([ASHL]) -6.5): 52896 and 49381.5 and 52343.9
GFP ([2]; Log([ASHL]) -7): 4847 and 5318 and 4599
Mean normalised fluorescence ([2]; Log([ASHL]) -7): 48761.2
Normalised fluorescence ([2]; Log([ASHL]) -7): 46176.2 and 48745.4 and 51362.1
GFP ([2]; Log([ASHL]) -7.5): 4806 and 4967 and 4256
Mean normalised fluorescence ([2]; Log([ASHL]) -7.5): 50366.9
Normalised fluorescence ([2]; Log([ASHL]) -7.5): 49622.2 and 48407.5 and 53071.1
GFP ([2]; Log([ASHL]) -8): 4739 and 4412 and 4755
Mean normalised fluorescence ([2]; Log([ASHL]) -8): 51222.6
Normalised fluorescence ([2]; Log([ASHL]) -8): 48553.6 and 53423.6 and 51690.6
GFP ([2]; Log([ASHL]) -8.5): 4235 and 3971 and 4223
Mean normalised fluorescence ([2]; Log([ASHL]) -8.5): 46308.3
Normalised fluorescence ([2]; Log([ASHL]) -8.5): 43174.3 and 50090 and 45660.8
GFP ([2]; Log([ASHL]) -9): 3046 and 2749 and 2957
Mean normalised fluorescence ([2]; Log([ASHL]) -9): 32989.1
Normalised fluorescence ([2]; Log([ASHL]) -9): 31098.3 and 35762 and 32107
GFP ([2]; Log([ASHL]) -9.5): 2089 and 1773 and 1816
Mean normalised fluorescence ([2]; Log([ASHL]) -9.5): 20544.4
Normalised fluorescence ([2]; Log([ASHL]) -9.5): 19459.5 and 23021.7 and 19152
GFP ([2]; Log([ASHL]) -10): 1495 and 1301 and 1477
Mean normalised fluorescence ([2]; Log([ASHL]) -10): 15546.1
Normalised fluorescence ([2]; Log([ASHL]) -10): 14827.9 and 16425.7 and 15384.6
GFP ([2]; Log([ASHL]) -10.5): 1424 and 1254 and 1414
Mean normalised fluorescence ([2]; Log([ASHL]) -10.5): 15128.3
Normalised fluorescence ([2]; Log([ASHL]) -10.5): 14176.3 and 15945.9 and 15262.6
GFP ([2]; Log([ASHL]) -11): 1414 and 1258 and 1391
Mean normalised fluorescence ([2]; Log([ASHL]) -11): 15383.1
Normalised fluorescence ([2]; Log([ASHL]) -11): 14419.4 and 15744.7 and 15985.4
GFP ([2]; Log([ASHL]) -11.5): 1447 and 1104 and 1274
Mean normalised fluorescence ([2]; Log([ASHL]) -11.5): 15262.1
Normalised fluorescence ([2]; Log([ASHL]) -11.5): 15049.3 and 14629.6 and 16107.4
